In patent US9556205B2, “Fungicide N-[(trisubstitutedsilyl)methyl]-carboxamide derivatives” (BAYER INTELLECTUAL PROPERTY GMBH, priority 2010, dated 2017):
Values joined by “and” are separate entries in the source; they are usually repeats but may differ in a detail not shown here. Equal values may be shown once.

How the values were obtained:
Alternaria solani = assay: In vivo preventive test on Alternaria solani (tomato); settings: 500 ppm of active ingredient, evaluated 7 days after inoculation
Experimental: Solvent: 49 parts by weight of N,N-dimethylformamide Emulsifier: 1 part by weight of Alkylarylpolyglycolether To produce a suitable preparation of active compound, 1 part by weight of active compound is mixed with the stated amounts of solvent and emulsifier, and the concentrate is diluted with water to the desired concentration. To test for preventive activity, young plants are sprayed with the preparation of active compound at the stated rate of application. One day after this treatment, the plants are inoculated with an aqueous spore suspension of Alternaria solani. […] Then the plants are placed in an incubation cabinet at approximately 20° C. and a relative atmospheric humidity of 96%.

Leptosphaeria nodorum = assay: In vivo preventive test on Leptosphaeria nodorum (wheat); settings: 500 ppm of active ingredient, evaluated 8 days after inoculation
Experimental: Solvent: 49 parts by weight of N,N-dimethylacetamide Emulsifier: 1 part by weight of alkylaryl polyglycol ether To produce a suitable preparation of active compound, 1 part by weight of active compound or the compound combination is mixed with the stated amounts of solvent and emulsifier, and the concentrate is diluted with water to the desired concentration. To test for protective activity, young plants are sprayed with a preparation of active compound or active compound combination at the stated rate of application. After the spray coating has dried on, the plants are sprayed with a spore suspension of Leptosphaeria nodorum. […] The plants are placed in a greenhouse at a temperature of approximately 15° C. and a relative atmospheric humidity of approximately 80%.

[1] = log P by HPLC on reversed-phase column (C18), EEC Directive 79/831 Annex V.A8; format: physicochemical; settings: 40° C., 0.1% aqueous formic acid and acetonitrile, linear gradient 10% to 90% acetonitrile
Experimental: In table 1, the log P values were determined in accordance with EEC Directive 79/831 Annex V.A8 by HPLC (High Performance Liquid Chromatography) on a reversed-phase column (C18), using the method described below:
Temperature: 40° C.; Mobile phases: 0.1% aqueous formic acid and acetonitrile; linear gradient from 10% acetonitrile to 90% acetonitrile.
Calibration was carried out using unbranched alkan-2-ones (comprising 3 to 16 carbon atoms) with known log P values (determination of the log P values by the retention times using linear interpolation between two successive alkanones). lambda-max-values were determined using UV-spectra from 200 nm to 400 nm and the peak values of the chromatographic signals.

Septoria tritici = assay: In vivo preventive test on Septoria tritici (wheat); settings: 500 ppm of active ingredient, evaluated 21 days after inoculation
Experimental: Solvent: 49 parts by weight of N,N-dimethylacetamide Emulsifier: 1 part by weight of alkylaryl polyglycol ether To produce a suitable preparation of active compound, 1 part by weight of active compound or active compound combination is mixed with the stated amounts of solvent and emulsifier, and the concentrate is diluted with water to the desired concentration. To test for preventive activity, young plants are sprayed with the preparation of active compound or active compound combination at the stated rate of application. After the spray coating has dried on, the plants are sprayed with a spore suspension of Septoria tritici. […] The plants are placed in a greenhouse at a temperature of approximately 15° C. and a relative atmospheric humidity of approximately 80%.

[2] = system: Aflatoxins production by Aspergillus parasiticus; format: cell-based
Aspergillus parasiticus = format: cell-based; settings: 7 days at 20° C., OD620nm
Pyrenophora teres = assay: In vivo preventive test on Pyrenophora teres (barley), Example F; settings: 500 ppm of active ingredient, evaluated 7-9 days after inoculation
Experimental: Solvent: 49 parts by weight of N,N-dimethylformamide Emulsifier: 1 part by weight of alkylaryl polyglycol ether To produce a suitable preparation of active compound, 1 part by weight of active compound is mixed with the stated amounts of solvent and emulsifier, and the concentrate is diluted with water to the desired concentration. To test for preventive activity, young plants are sprayed with the preparation of active compound at the stated rate of application. One day after this treatment, the plants are inoculated with an aqueous spore suspension of Pyrenophora teres. […] Then the plants are placed in a greenhouse at a temperature of approximately 20° C. and a relative atmospheric humidity of approximately 80%.

Venturia inaequalis = assay: In vivo preventive test on Venturia inaequalis (apple scab); settings: 100 ppm of active ingredient, evaluated 10 days after inoculation
Experimental: Solvent: 24.5 parts by weight of acetone • 24.5 parts by weight of N,N-dimethylacetamide Emulsifier: 1 part by weight of alkylaryl polyglycol ether To produce a suitable preparation of active compound, 1 part by weight of active compound is mixed with the stated amounts of solvent and emulsifier, and the concentrate is diluted with water to the desired concentration. To test for protective activity, young plants are sprayed with the preparation of active compound at the stated rate of application. […] The plants are then placed in a greenhouse at approximately 21° C. and a relative atmospheric humidity of approximately 90%.

Row | SMILES | Efficacy (Alternaria solani) [%] | Efficacy (Leptosphaeria nodorum) | logP [1] | Efficacy (Septoria tritici) [%] | % Inhibition of Aflatoxin at 50 μM [2] [%] | % Inhibition of fungal growth at 50 μM (Aspergillus parasiticus) [%] | Efficacy (Pyrenophora teres) [%] | Efficacy (Venturia inaequalis) [%]
1 | CN(C[Si](C)(C)c1ccccc1)C(=O)c1c(C(F)F)nn(C)c1F [Example 4] | 100 | 93% | 3.23 | 100 | 100 | 100 | 100 | 
2 | Cc1nc(C(F)F)c(C(=O)N(C[Si](C)(C)c2ccccc2Cl)C2CC2)s1 [Example 21] | 95 | 100% | 4.32 | 100 |  |  | 100 | 
3 | Cn1cc(C(=O)N(C[Si](C)(C)c2ccccc2Cl)C2CC2)c(C(F)F)n1 [Example 17] | 94 | 94% | 3.73 | 83 |  |  | 95 | 98
4 | Cn1cc(C(=O)N(C[Si](C)(C)c2cc(Cl)cc(Cl)c2)C2CC2)c(C(F)F)n1 [Example 51] | 95 | 80% and 95% | 4.41 | 100 |  |  | 100 | 
5 | Cc1nc(C(F)F)c(C(=O)N(C[Si](C)(C)c2cccc(Cl)c2)C2CC2)s1 [Example 32] |  | 100% | 4.32 | 100 |  |  | 95 | 
6 | Cn1cc(C(=O)N(C[Si](C)(C)c2cccc(Cl)c2)C2CC2)c(C(F)F)n1 [Example 30] | 95 | 100% | 3.80 | 100 |  |  | 100 | 
7 | Cc1cc(C(=O)N(C[Si](C)(C)c2ccc(Cl)cc2Cl)C2CC2)c(C)o1 [Example 40] |  |  | 5.46 | 100 |  |  | 95 | 
8 | Cc1nn(C)c(F)c1C(=S)N(C[Si](C)(C)c1ccccc1)C1CC1 [Example 10] | 100 | 100% | 3.99 | 100 |  |  | 100 | 
9 | CCc1nn(C)c(F)c1C(=O)N(C[Si](C)(C)c1ccccc1Cl)C1CC1 [Example 20] | 100 | 100% | 4.03 | 92 |  |  | 100 | 90
10 | CCc1nn(C)c(F)c1C(=O)N(C[Si](C)(C)c1cccc(Cl)c1)C1CC1 [Example 28] | 100 | 100% | 4.08 | 100 |  |  | 100 | 88
11 | Cn1nc(C(F)F)c(C(=O)NC[Si](C)(C)c2ccccc2)c1F [Example 1] | 100 |  | 3.13 |  | 100 | 93 | 100 | 
12 | Cn1nc(C(F)F)c(C(=O)NC[Si](C)(C)c2ccccc2Cl)c1F [Example 15] | 95 |  | 3.48 | 90 | 88 | 76 | 100 | 
13 | Cc1nn(C)c(F)c1C(=O)N(C[Si](C)(C)c1cc(Cl)cc(Cl)c1)C1CC1 [Example 48] | 100 | 100% | 4.34 |  |  |  | 100 | 
14 | CCc1nn(C)c(F)c1C(=S)N(C[Si](C)(C)c1ccccc1)C1CC1 [Example 9] | 100 | 100% | 4.41 | 93 |  |  | 100 | 
15 | Cn1nc(C(F)F)c(C(=O)N(C[Si](C)(C)c2ccsc2)C2CC2)c1Cl [Example 75] | 94 |  | 3.71 |  | 100 | 100 | 100 | 
16 | Cn1nc(C(F)F)c(C(=O)N(C[Si](C)(C)Cc2ccccc2Cl)C2CC2)c1F [Example 61] | 100 |  | 4.41 |  | 100 | 100 | 100 | 
